Test results as given in patent US12527773B2, “Flavi-block: a pan-flavivirus inhibitor” (Baden-Württemberg Stiftung GmbH, priority 2020, dated 2026).
Entries after “also recorded” stand apart in the source; their conditions may differ. Read-outs that look alike come from different tables or passages of the source.

Columns and labels:
RSV = assay: IC50 in established virological assays (Table 1), RSV; type: cell-based; conditions: human respiratory syncytial virus
Experimental: In summary, a set of C10 derivatives (FIG. 12) was designed, synthesized and tested against HCV (which is considered as an established system to monitor drug effects against Flaviviridae) as well as DENV for comprehensive structure-activity relationship (SAR) analysis and target validation. IC50 and CC50 values for compound C10 were determined in established virological assays (Table 1). […] Further, said experiments underline the specificity of compound C10 for flaviviruses.

in vitro = conditions: for % Remain. Mean: mouse plasma, 1 μM, 37° C.
Experimental: Plasma stability is defined as the percentage of parent compound remaining in plasma over the time.
Incubations were carried out in 5 aliquots of 70 μL each (one for each time point), in duplicates. Test compounds (1 μM, final DMSO concentration 1%) were incubated at 37° C. with shaking at 100 rpm. Five time points over 120 minutes have been analyzed. The reactions were stopped by adding 420 μL of acetonitrile-water mixture (90:10) with subsequent plasma proteins sedimentation by centrifuging at 5500 rpm for 5 minutes. Supernatants were analyzed by the HPLC system coupled with tandem mass spectrometer. The percentage of the test compounds remaining after incubation in plasma and their half-lives (T1/2) were calculated.

Huh7.5 cells = assay: Viability of treated Huh7.5 cells by MTT assay; type: cell-based; conditions: 10 μM, 24 h after treatment
Experimental: (§1) Huh7.5 cells were electroporated with HCV-JC1-Luc (reporter virus expressing luciferase via IRES) RNA and treated 24 h later with the best 20 candidates (10 μM). After another 24 h the supernatants were harvested. To quantify infectious particles, untreated Huh7.5 cells were inoculated with the supernatants and 36 h later the luciferase activity was measured. The viability of the same cells was determined 24 h after treatment with inhibitor by MTT assay (tetrazolium salt which is reduced in metabolically active cells resulting in a color change). For both parameters, 100% corresponds to the release or viability of the untreated or DMSO treated control. uninf.=not infected; untr.=not treated. Mean values and SD were derived from n =3 independent infections.
The viability of the same cells was determined 24 h after treatment with the candidate substances by MTT assay (tetrazolium salt reduced in metabolically active cells resulting in a color change) (FIG. 2). For both parameters, 100% of release or viability corresponds to the untreated or DMSO-treated control.

HCV-JC1-Luc = assay: Validation of antiviral effects of 20 hits: release of infectious HCV-JC1-Luc particles from Huh7.5 cells; type: cell-based, Hepatitis C virus; conditions: 10 μM, among the best 20 candidates
Experimental: as §1
Huh7.5 hepatocellular carcinoma cells were electroporated with HCV-JC1-Luc (reporter virus expressing luciferase via IRES) RNA and treated 24 h later with the best 20 candidates (10 μM) identified in Example 1. After another 24 h, the supernatants were harvested. To quantify infectious particles, untreated Huh7.5 cells were inoculated with the supernatants and luciferase activity was measured 36 h later (FIG. 2).

DENV1 = assay: Plaque assay of released virus, DENV1-infected Vero cells; type: cell-based; conditions: Dengue virus
Experimental: Vero cells were infected with DENV1-4 at an MOI of 1 for 2 h (post infection, p.i., (A)), after which virus was removed, and fresh maintenance medium containing 2% FCS together with the indicated concentration of C10 added. For co-treat condition (c.t., (B)), Vero cells were infected with DENV1-4 at an MOI of 1 in the presence of C10 for 2 h, followed by removal of the virus/C10 inoculums, and addition of fresh 2% fetal calf serum maintenance medium. […] Results represent the mean ±SD for duplicate wells from a single assay, representative of 2 independent experiments (cf. Tables 2A and 2B, infra, for pooled data).
Vero and BHK-21 cells were maintained in DMEM media supplemented with 10% heat-inactivated FBS at 37° C. in a humidified incubator supplemented with 5% CO2; A549 cells were maintained in F-12K medium supplemented with 10% heat-inactivated Fetal Bovine Serum (FBS), 2 mM L-glutamine, 50 U/I penicillin, 0.05 mg/l streptomycin. […] Viral titer was subsequently determined by plaque assay (see below).
Vero cells were seeded into 24-well plates at a density of 2×10^5 cells/well and grown overnight in culture medium at 37° C. with 5% CO2 prior to infection with RSV, KUNV, ZIKV as indicated. […] The stain was removed by rinsing the cells with tap water, and the viral plaques were counted visually. […]

HCV core protein = HCV core protein (Hepatitis C virus genotype 1a, UniProt P27958); assay: Interaction with and crosslinking of HCV core protein (Western blot); conditions: purified core protein
Sequence of HCV core protein (P27958 1-117): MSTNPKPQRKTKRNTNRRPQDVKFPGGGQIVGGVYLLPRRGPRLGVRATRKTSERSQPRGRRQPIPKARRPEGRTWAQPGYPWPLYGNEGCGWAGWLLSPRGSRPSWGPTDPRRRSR

CCN1/C(=C\C=C\c2sc3cc(NC(C)=O)ccc3[n+]2CC)Sc2cc(NC(C)=O)ccc21.[I-] [C10, 6-acetamido-2-((1E,3E)-3-(6-acetamido-3-ethylbenzo[d]thiazol-2(3H)-ylidene)prop-1-en-1-yl)-3-ethylbenzo[d]thiazol-3-ium iodide]
IC50 (RSV): 4300 nM | % Remain. Mean (in vitro; 0 min): 100% | % Remain. Mean (in vitro; 20 min): 93% | % Remain. Mean (in vitro; 40 min): 90% | % Remain. Mean (in vitro; 60 min): 82% | % Remain. Mean (in vitro; 120 min): 57% | half-life at 1 μM (in vitro; mouse, plasma): 3.68 h | stability in mouse plasma (in vitro; mouse, plasma): good stability | cell viability (MTT) (Huh7.5 cells): no negative effect on cell viability | antiviral activity (release of infectious particles) (HCV-JC1-Luc): highest antiviral activity | EC50 (DENV1; read-out: EC50 from plaque assays, DENV1, c.t. (co-treat)): 40 nM | EC50 (DENV1; read-out: EC50 from plaque assays, DENV1, p.i. (post infection)): 110 nM | cross-linking / oligomerization of HCV core protein (HCV core protein): leads to cross-linking of the core protein; also recorded: triggers the oligomerization of HCV core protein
